# Results published in patent US10253041B2, “7-phenylethylamino-4H-pyrimido[4,5-d][1,3]oxazin-2-one compounds and their use as mutant IDH1 inhibitors” (Eli Lilly and Company, priority 2015, dated 2019).
# How the values were obtained:
# [1] = biological target: T1, IDH1 Wild-Type (Homo sapiens, UniProt O75874); test: Biochemical assay for wild-type IDH1 enzyme (αKG by LC-MS); conditions: mean ± standard deviation of the mean
# T1 construct: His-tag (N); made in house; host or cells: E. coli
# Procedure: IDH1 and IDH2 enzymes catalyze the conversion of isocitrate to αKG. Wild-type IDH1 (National Center for Biotechnology Information, Accession: NP_001269316.1) and IDH2 (National Center for Biotechnology Information, Accession: EAX02082.1) proteins containing N-terminal His-tag are expressed in E. coli and purified using nickel affinity chromatography. The enzyme assays are carried out in V-bottom 96 well polypropylene plates containing 100 mM Tris-HCl buffer at pH 7.5, 1 mM DTT, 0.005% TRITON™ X-100, 120 mM NaCl. For the IDH1 wild-type assay isocitrate, NADP^+ and MnCl2 are included at the concentrations of 85 μM, 50 μuM and 20 μM respectively. For the IDH2 wild-type assay isocitrate, NADP^+ and MnCl2 are included at the concentrations of 30 μM, 50 μM and 10 μM respectively. Inhibitors dissolved in a DMSO stock solution are diluted in the reaction mixture at a final DMSO concentration of 4%. The enzyme assay is terminated (quenched) by adding ACN (50:50) containing d6-2-ketopentanedioic acid (d6-αKG) as an internal standard for mass spectrometry analysis. Ten microliters of reaction mixture is combined with 100 μL of water, 50 μL of 1 M O-benzylhydroxylamine in pyridine buffer (8.6% pyridine, pH 5), and 50 μL of 1 M N-(3-dimethylaminopropyl)-N-ethylcarbodiimide hydrochloride (EDC) in pyridine buffer. Following derivatization at room temperature for one hour, samples are extracted with 600 μL of EtOAc. Four hundred […] of the upper layer is removed, dried under heated nitrogen and reconstituted with 100 μL of MeOH/water (1:1). Ten μL of derivatized sample is injected onto an LC-MS system consisting of a Shimadzu Prominence 20A HPLC system and a The Thermo Quantum Ultra™ triple quadrupole mass spectrometer. Analytes are separated on a Waters XBridge™ C18 column (2.1×50 mm, […]) with a flow rate of 0.6 mL/minute. Mobile phase A is 0.1% formic acid in water and mobile phase B is MeOH. The αKG signal detected is transformed into analyte concentration using a calibration curve generated using known αKG concentrations. […] IC50 values are obtained from the individual % inhibition values at different compound concentrations using a 4-parameter equation. These calculations are carried out using Activity Base (IDBS) or Screener (Genedata) data analysis programs.
# [2] = system: IDH1/R132H in U87MG glioma cells; test: U87MG/IDH1R132H cell assay (intracellular 2HG); assay type: cell-based; conditions: Homo sapiens, U-87 MG, 19 h, 1 hour + 18 hours incubation, read-out: U87MG (IDH1/R132H 2-hydroxyglutarate IC50)
# Procedure: To test the cellular inhibition of IDH1 mutant R132C, the fibrosarcoma cell line HT1080 (purchased from ATCC) is used. For testing cell-based inhibition of the R132H mutation, the U87MG glioma cell line (ATCC) was stably transfected with a DNA construct expressing the R132H mutant enzyme.
# Cells are plated in poly-D-lys coated 96 well plates (12,000 cells/well) 18-24 hours previous to treatment with compounds. Four hours prior to compound treatment, cells are glutamine-starved by removing normal media and replacing with glutamine-free media. Following starvation, cells are then treated with different concentrations of test compounds (20 μM to 1 nM) dissolved in glutamine free media containing DMSO at a final concentration of 0.2%. The initial compound incubation is for 1 hour at 37° C./5% CO2. After 1 hour, glutamine is added to a final 2 mM concentration and the treated cells are then incubated for a further 18 hours at 37° C./5% CO2. Intracellular 2HG is analyzed in cell lysates obtained after media removal and treatment with lysis buffer (25 mM Tris-HCl pH 7.5, 150 mM NaCl, 1 mM EDTA, 1 mM EGTA/1% Triton-X 100). Cell lysates are conserved at −80° C. until processing. For analyte extraction, an aliquot of thawed lysate is transferred to a deep 96-well plate and treated with cold MeOH containing d5-3HG as an internal standard followed by chloroform and H2O (1:4:3:2). The upper phase is collected after separation and injected in HPLC to separate 2HG (and internal standard) using hydrophilic interaction (HILIC) chromatography coupled to MS/MS detection in a 6460 triple quadrupole mass spectrometer. Percent inhibition for each individual sample is obtained after normalizing calculated 2HG concentration to maximum and minimum references obtained in the presence and in the absence of glutamine during cell treatment with compounds. IC50 values are obtained from individual % inhibition using a sigmoidal dose-response 4-parameter equation. These calculations are carried out automatically using Activity Base (IDBS) or Screener (Genedata) data analysis programs.
# T1 sequence (O75874 whole entry): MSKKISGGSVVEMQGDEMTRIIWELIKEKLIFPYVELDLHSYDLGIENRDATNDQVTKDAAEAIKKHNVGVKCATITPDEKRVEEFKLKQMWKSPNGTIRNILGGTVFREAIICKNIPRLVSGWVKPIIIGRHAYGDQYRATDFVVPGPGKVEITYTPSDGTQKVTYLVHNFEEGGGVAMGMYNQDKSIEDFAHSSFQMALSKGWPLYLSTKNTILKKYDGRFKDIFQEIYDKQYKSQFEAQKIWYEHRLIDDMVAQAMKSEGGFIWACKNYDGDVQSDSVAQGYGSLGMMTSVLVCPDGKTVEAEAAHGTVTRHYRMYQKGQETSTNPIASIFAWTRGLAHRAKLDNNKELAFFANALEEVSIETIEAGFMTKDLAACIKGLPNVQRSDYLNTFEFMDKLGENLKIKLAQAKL
IC50 [1],IC50 [2],Structure (SMILES)
4.32 ± 0.37 µM,0.0319 ± 0.0117 µM,"C=CC(=O)N1CCN(Cc2ccc([C@H](C)Nc3ncc4c(n3)N(CC(F)F)C(=O)OC4)cc2)CC1 [Example 20, 1-(2,2-difluoroethyl)-7-[[(1S)-1-[4-[(4-prop-2-enoylpiperazin-1-yl)methyl]phenyl]ethyl]amino]-4H-pyrimido[4,5-d][1,3]oxazin-2-one]"
6.58 ± 1.01 µM,0.0246 ± 0.0159 µM,"C=CC(=O)N1CCN(Cc2ccc([C@H](C)Nc3ncc4c(n3)N(CCF)C(=O)OC4)cc2)CC1 [Example 21, 1-(2-fluoroethyl)-7-[[(1S)-1-[4-[(4-prop-2-enoylpiperazin-1-yl)methyl]phenyl]ethyl]amino]-4H-pyrimido[4,5-d][1,3]oxazin-2-one]"
